Data on 20 molecules can be found in patent US6403034B1, “Method of reducing the concentration of recalcitrant organic contamination in a soil matrix” (priority 1995, dated 2002).

The structures appear in SMILES notation. Read-outs that look alike come from different tables or passages of the source.

Data set [1] is described as follows: Relative recalcitrancy classification of organic contaminants (FIG. 1). The data set is classed as physicochemical.
The nature of data set [2]: Laboratory ozonation of contaminants, incubation versus oxidation phase (FIGS. 2, 5, 6, 8-12). The conditions noted are these: for incubation time: lab conditions. The data set is classed as physicochemical.
The nature of data set [3]: Ozonation of contaminated soil slurry in 5-L reaction flask (Examples 1, 2 and 7). The data set is classed as physicochemical.
For data set [4] the following is noted: aqueous solubility; cited from earlier work.
The format of data set [5] is physicochemical. The conditions noted are these: for soil concentration reduced by: continuous ozonation for 56 days.
Where [6] appears, read: by solubility, volatility and non-reactivity standards.

For the molecule `Clc1ccc(C(c2ccc(Cl)cc2)C(Cl)(Cl)Cl)cc1` [DDT], the relative recalcitrancy result in data set [1] was “strongly recalcitrant”. Regarding `Oc1c(Cl)c(Cl)c(Cl)c(Cl)c1Cl` [PCP, Pentachlorophenol], the incubation time entry in data set [2] (FIG. 10) is recorded as “about 45 minutes”. The “concentration reduced by” value in data set [3] (Example 1, in 31 hours, start 28 mg/Kg) stood at 97.5%. Consider `CCOC(=O)CC(SP(=S)(OC)OC)C(=O)OCC` (stereo not shown) [malathion], for which the relative recalcitrancy result in data set [1] was “recalcitrant”. As to `CCCCC(CC)COC(=O)c1ccccc1C(=O)OCC(CC)CCCC` (stereo not shown) [bis(2-ethylhexyl)phthalate], the relative recalcitrancy entry in data set [1] (setting [6]) is recorded as “recalcitrant”. In addition, the incubation time entry in data set [2] (FIGS. 6, 8, 9) is given as “less than 30 hours”. Also, the “concentration reduced by” value in data set [3] (Example 2, in 72 hours of ozonation, start 597 mg/Kg) was 98.2%. `CCCCCCCCOC(=O)c1ccccc1C(=O)OCCCCCCCC` [Di-n-octyl phthalate]: in data set [3] (Example 2, in 48 hours of ozonation, start 37 mg/Kg), the “concentration reduced by” value was 97%. Consider `ClC1=C(Cl)C2(Cl)C3C(Cl)C(Cl)CC3C1(Cl)C2(Cl)Cl` (stereo not shown) [Chlordane], for which the relative recalcitrancy entry in data set [1] is “strongly recalcitrant”. In the case of `c1ccc(-c2ccccc2)cc1` [biphenyl], in data set [1], the relative recalcitrancy entry was “marginally recalcitrant”. Besides, the solubility in data set [4] is reported as 5,200 μg/L. As to `CCOP(=S)(OCC)Oc1ccc([S+](C)[O-])cc1` (stereo not shown) [Phensulfothion], the “soil concentration reduced by” value in data set [5] is listed as 100%. With `c1ccc2cc3ccccc3cc2c1` [anthracene], the relative recalcitrancy result in data set [1] (setting [6]) is on record as “recalcitrant”. On to `ClC1=C(Cl)C2(Cl)C3C4C=CC(C4)C3C1(Cl)C2(Cl)Cl` (stereo not shown) [Aldrin], for which, in data set [1], the relative recalcitrancy entry is listed as “strongly recalcitrant”. In the case of `Clc1c(Cl)c(Cl)c(Cl)c(Cl)c1Cl` [HCB], in data set [2], the “incubation phase (ozonation time)” value was around 8 h. For the molecule `O=S1OCC2C(CO1)C1(Cl)C(Cl)=C(Cl)C2(Cl)C1(Cl)Cl` (stereo not shown) [Endosulfan II], the incubation phase result in data set [5] (31 mg/kg, FIG. 17) is reported as “about 16 days”. In addition, the “soil concentration reduced by” value in data set [5] was found to be 100%. As for `CCOP(=S)(OCC)Oc1ccc([N+](=O)[O-])cc1` [Ethyl Parathion], the “soil concentration reduced by” value in data set [5] came to 100%. Regarding `c1cc2c3c(cccc3c1)CC2` [acenapthene], in data set [1], the relative recalcitrancy entry is recorded as “recalcitrant”. On to `c1ccc2ccccc2c1` [napthalene], for which the relative recalcitrancy result in data set [1] is recorded as “recalcitrant”. Turning to `CCCCCCC` [heptane], the relative recalcitrancy result in data set [1] (setting [6]) was “non-recalcitrant”. The same measure, in the same setting: then `c1ccccc1` [Benzene], with “non-recalcitrant”. For the molecule `c1ccc2c(c1)ccc1c3ccccc3ccc21` [chrysene], in data set [1], the relative recalcitrancy entry is on record as “recalcitrant”.

Take `c1ccc2c(c1)cc1ccc3cccc4ccc2c1c34` [benzo(a)pyrene]: in data set [2] (FIGS. 6, 8, 9), the incubation time entry is “more than 5 hours”. As to `CCc1ccccc1` [ethylbenzene], in data set [1], the relative recalcitrancy entry was “non-recalcitrant”.
